Tested on: 556581-035-R-J1 tumor spheroid viability, % test/control
Test: Anticancer human tumor 556581-035-R-J1 patient-derived ovarian carcinoma cell line growth inhibition
Details: spheroids with HUVEC and MSC; for IC50: curve of first compound; for viability, T/C: stronger effect = lower value; active = viability on the fitted dose curve at most 10% of control; inactive = the rest
How it was run: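 Complex tumor spheroids combined malignant cells with endothelial cells and mesenchymal stem cells. DNA-damaging drugs and DNA repair inhibitors were tested alone and in combination, at half-log dilutions down from clinical Cmax (top 10 microM if Cmax unknown), 0.25% DMSO final.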

[1] = second compound 30 pM, first compound 0.0316 µM
[2] = second compound 30 pM, first compound 0.1 µM
[3] = second compound 30 pM, first compound 0.316 µM
[4] = second compound 30 pM, first compound 1 µM
[5] = second compound 30 pM, first compound 3.16 µM
[6] = second compound 30 pM, first compound 10 µM
[7] = second compound 94.9 pM, first compound 0.0316 µM
[8] = second compound 94.9 pM, first compound 0.1 µM
[9] = second compound 94.9 pM, first compound 0.316 µM
[10] = second compound 94.9 pM, first compound 1 µM
[11] = second compound 94.9 pM, first compound 3.16 µM
[12] = second compound 94.9 pM, first compound 10 µM
[13] = second compound 0.0003 µM, first compound 0.0316 µM
[14] = second compound 0.0003 µM, first compound 0.1 µM
[15] = second compound 0.0003 µM, first compound 0.316 µM
[16] = second compound 0.0003 µM, first compound 1 µM
[17] = second compound 0.0003 µM, first compound 3.16 µM
[18] = second compound 0.0003 µM, first compound 10 µM
[19] = second compound 0.000949 µM, first compound 0.0316 µM
[20] = second compound 0.000949 µM, first compound 0.1 µM
[21] = second compound 0.000949 µM, first compound 0.316 µM
[22] = second compound 0.000949 µM, first compound 1 µM
[23] = second compound 0.000949 µM, first compound 3.16 µM
[24] = second compound 0.000949 µM, first compound 10 µM
[25] = second compound 0.003 µM, first compound 0.0316 µM
[26] = second compound 0.003 µM, first compound 0.1 µM
[27] = second compound 0.003 µM, first compound 0.316 µM
[28] = second compound 0.003 µM, first compound 1 µM
[29] = second compound 0.003 µM, first compound 3.16 µM
[30] = second compound 0.003 µM, first compound 10 µM
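Note: spheroids exposed to compounds for 7 days before viability read.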

CC(C)n1c(=O)n(C)c2cnc3cc(F)c(-c4ccc(OCCCN5CCCCC5)nc4)cc3c21 + COc1cc2c(cc1O)CCNC21CSC2c3c(OC(C)=O)c(C)c4c(c3C(COC1=O)N1C(O)C3Cc5cc(C)c(OC)c(O)c5C(C21)N3C)OCO4
> 10 µM: IC50 (second compound 30 pM) | IC50 (second compound 94.9 pM) | IC50 (second compound 0.0003 µM)
< 0.0316 µM: IC50 (second compound 0.000949 µM) | IC50 (second compound 0.003 µM)
inactive: viability, T/C [1] 86.3% | viability, T/C [2] 97.8% | viability, T/C [3] 96.5% | viability, T/C [4] 91% | viability, T/C [5] 89.2% | viability, T/C [6] 73.7% | viability, T/C [7] 94.9% | viability, T/C [8] 98% | viability, T/C [9] 95.6% | viability, T/C [10] 95.6% | viability, T/C [11] 86% | viability, T/C [12] 66.6% | viability, T/C [13] 96.1% | viability, T/C [14] 96.8% | viability, T/C [15] 98.8% | viability, T/C [16] 97.7% | viability, T/C [17] 84.4% | viability, T/C [18] 62.3% | viability, T/C [19] 44.8% | viability, T/C [20] 35% | viability, T/C [21] 37.1% | viability, T/C [22] 48.5% | viability, T/C [23] 39.1% | viability, T/C [24] 17.6%
active: viability, T/C [25] 0.76% | viability, T/C [26] 1.38% | viability, T/C [27] 0.61% | viability, T/C [28] 0.59% | viability, T/C [29] 0.42% | viability, T/C [30] 0.65%

CC1COCCN1c1cc(-c2ccnn2C)c2ccnc(-c3ccn[nH]3)c2n1 (stereo not given) + COc1cc2c(cc1O)CCNC21CSC2c3c(OC(C)=O)c(C)c4c(c3C(COC1=O)N1C(O)C3Cc5cc(C)c(OC)c(O)c5C(C21)N3C)OCO4
active: viability, T/C [19] 7.45% | viability, T/C [20] 4.92% | viability, T/C [21] 5.53% | viability, T/C [22] 6.39% | viability, T/C [23] 3.31% | viability, T/C [24] 0.59% | viability, T/C [25] 0.82% | viability, T/C [26] 0.83% | viability, T/C [27] 1.19% | viability, T/C [28] 0.43% | viability, T/C [29] 0.43% | viability, T/C [30] 0.72%
< 0.0316 µM: IC50 (second compound 0.000949 µM) | IC50 (second compound 0.003 µM)
0.786 µM: IC50 (second compound 30 pM)
0.0592 µM: IC50 (second compound 0.0003 µM)
inactive: viability, T/C [1] 93.9% | viability, T/C [2] 74.6% | viability, T/C [3] 59.1% | viability, T/C [4] 48.5% | viability, T/C [5] 38.2% | viability, T/C [6] 34.4% | viability, T/C [7] 73.7% | viability, T/C [8] 62.5% | viability, T/C [9] 51.8% | viability, T/C [10] 44.2% | viability, T/C [11] 38% | viability, T/C [12] 34.4% | viability, T/C [13] 53.6% | viability, T/C [14] 45.7% | viability, T/C [15] 43.1% | viability, T/C [16] 43.8% | viability, T/C [17] 37.6% | viability, T/C [18] 32.3%
0.426 µM: IC50 (second compound 94.9 pM)

COc1cc(C)[nH]c(=O)c1CN1CCc2c(Cl)cc(C(OC)C3COC3)c(Cl)c2C1=O (stereo not given) + COc1cc2c(cc1O)CCNC21CSC2c3c(OC(C)=O)c(C)c4c(c3C(COC1=O)N1C(O)C3Cc5cc(C)c(OC)c(O)c5C(C21)N3C)OCO4
active: viability, T/C [25] 0.61% | viability, T/C [26] 0.67% | viability, T/C [27] 2.15% | viability, T/C [28] 0.7% | viability, T/C [29] 0.66% | viability, T/C [30] 1.02%
< 0.0316 µM: IC50 (second compound 0.000949 µM) | IC50 (second compound 0.003 µM)
> 10 µM: IC50 (second compound 30 pM) | IC50 (second compound 94.9 pM) | IC50 (second compound 0.0003 µM)
inactive: viability, T/C [1] 106% | viability, T/C [2] 108% | viability, T/C [3] 105% | viability, T/C [4] 115% | viability, T/C [5] 116% | viability, T/C [6] 113% | viability, T/C [7] 103% | viability, T/C [8] 101% | viability, T/C [9] 108% | viability, T/C [10] 111% | viability, T/C [11] 108% | viability, T/C [12] 110% | viability, T/C [13] 92.4% | viability, T/C [14] 95% | viability, T/C [15] 100% | viability, T/C [16] 101% | viability, T/C [17] 98.2% | viability, T/C [18] 93.7% | viability, T/C [19] 44.6% | viability, T/C [20] 46.5% | viability, T/C [21] 41.4% | viability, T/C [22] 36.7% | viability, T/C [23] 32.1% | viability, T/C [24] 17.6%

COc1ccc([C@@H](O)c2cc(-c3ncnc4cc(N5CCOCC5)ccc34)c(F)cc2Cl)nn1 + COc1cc2c(cc1O)CCNC21CSC2c3c(OC(C)=O)c(C)c4c(c3C(COC1=O)N1C(O)C3Cc5cc(C)c(OC)c(O)c5C(C21)N3C)OCO4
1.96 µM: IC50 (second compound 94.9 pM)
1.77 µM: IC50 (second compound 30 pM)
active: viability, T/C [22] 0.69% | viability, T/C [23] 0.37% | viability, T/C [24] 1.03% | viability, T/C [25] 0.59% | viability, T/C [26] 0.87% | viability, T/C [27] 0.65% | viability, T/C [28] 0.7% | viability, T/C [29] 0.82% | viability, T/C [30] 0.98%
2.06 µM: IC50 (second compound 0.0003 µM)
< 0.0316 µM: IC50 (second compound 0.000949 µM) | IC50 (second compound 0.003 µM)
inactive: viability, T/C [1] 97.4% | viability, T/C [2] 102% | viability, T/C [3] 88.2% | viability, T/C [4] 60.5% | viability, T/C [5] 40.1% | viability, T/C [6] 32.8% | viability, T/C [7] 104% | viability, T/C [8] 102% | viability, T/C [9] 90.5% | viability, T/C [10] 61.6% | viability, T/C [11] 42.7% | viability, T/C [12] 32.3% | viability, T/C [13] 99.5% | viability, T/C [14] 104% | viability, T/C [15] 86.8% | viability, T/C [16] 67.8% | viability, T/C [17] 40% | viability, T/C [18] 22.4% | viability, T/C [19] 42.1% | viability, T/C [20] 36.5% | viability, T/C [21] 12.3%

Cc1cc(C)c(CNC(=O)c2cc(-c3ccc(CN4CCOCC4)cc3)cc3c2cnn3C2CCCC2)c(=O)[nH]1 + COc1cc2c(cc1O)CCNC21CSC2c3c(OC(C)=O)c(C)c4c(c3C(COC1=O)N1C(O)C3Cc5cc(C)c(OC)c(O)c5C(C21)N3C)OCO4
inactive: viability, T/C [1] 100% | viability, T/C [2] 108% | viability, T/C [3] 105% | viability, T/C [4] 117% | viability, T/C [5] 112% | viability, T/C [6] 97.5% | viability, T/C [7] 109% | viability, T/C [8] 108% | viability, T/C [9] 110% | viability, T/C [10] 109% | viability, T/C [11] 110% | viability, T/C [12] 88.3% | viability, T/C [13] 99.9% | viability, T/C [14] 100% | viability, T/C [15] 103% | viability, T/C [16] 103% | viability, T/C [17] 98.4% | viability, T/C [18] 88.3% | viability, T/C [19] 45.2% | viability, T/C [20] 43.5% | viability, T/C [21] 46% | viability, T/C [22] 30.7% | viability, T/C [23] 24.5% | viability, T/C [24] 11.6%
active: viability, T/C [25] 1.01% | viability, T/C [26] 0.92% | viability, T/C [27] 0.9% | viability, T/C [28] 0.75% | viability, T/C [29] 0.82% | viability, T/C [30] 1.15%
< 0.0316 µM: IC50 (second compound 0.000949 µM) | IC50 (second compound 0.003 µM)
> 10 µM: IC50 (second compound 30 pM) | IC50 (second compound 94.9 pM) | IC50 (second compound 0.0003 µM)

[2H]c1nc(C)nc([2H])c1-c1cc(NC[C@@H](C)c2cccc3c(C(=O)NC)ccnc23)ncn1 + COc1cc2c(cc1O)CCNC21CSC2c3c(OC(C)=O)c(C)c4c(c3C(COC1=O)N1C(O)C3Cc5cc(C)c(OC)c(O)c5C(C21)N3C)OCO4
active: viability, T/C [25] 1.6% | viability, T/C [26] 0.73% | viability, T/C [27] 0.75% | viability, T/C [28] 0.97% | viability, T/C [29] 1.05% | viability, T/C [30] 1.32%
< 0.0316 µM: IC50 (second compound 0.000949 µM) | IC50 (second compound 0.003 µM)
inactive: viability, T/C [1] 105% | viability, T/C [2] 119% | viability, T/C [3] 116% | viability, T/C [4] 120% | viability, T/C [5] 110% | viability, T/C [6] 116% | viability, T/C [7] 113% | viability, T/C [8] 118% | viability, T/C [9] 108% | viability, T/C [10] 113% | viability, T/C [11] 118% | viability, T/C [12] 125% | viability, T/C [13] 101% | viability, T/C [14] 110% | viability, T/C [15] 102% | viability, T/C [16] 104% | viability, T/C [17] 108% | viability, T/C [18] 109% | viability, T/C [19] 40.9% | viability, T/C [20] 46.4% | viability, T/C [21] 42.9% | viability, T/C [22] 46.3% | viability, T/C [23] 33.9% | viability, T/C [24] 31.1%
> 10 µM: IC50 (second compound 30 pM) | IC50 (second compound 94.9 pM) | IC50 (second compound 0.0003 µM)

Reference: PubChem BioAssay AID1845199 (Molecular Pharmacology Branch, DTP, NCI, 2023)
